The text below walks through data of patent US12016918B2, “Peptide-containing adjuvant compounds having peg spacers” (UNIVERSITEIT LEIDEN, priority 2017, dated 2024).

Non-standard residues stand in square brackets, D forms with d. *: point of attachment. O(CH2CH2O)3CH2C(O) = O=C(COCCOCCOCCO)*; AEEEA = NCCOCCOCCOCC(=O)O; Carbamoyl = NC(=O)*; Cy5 = Cy5 label

Common to all, as to assay type: cell-based
The target in one experiment is T1, human TLR2 (Homo sapiens, UniProt O60603).
T1 construct: host or cells: HEK293
The experiment can be described thus: HEK293-TLR2 activation assay (IL-8 production). Particulars: for activation of TLR2 HEK cells (human IL-8 production via TLR-2): HEK TLR-2 cells incubated with titrated amounts of compound, IL-8 in supernatant by ELISA, FIG. 2A/3A; for TLR2-mediated bio-activity compared to reference ligands: compared to compound 1 and 5 and chirally pure Pam3CSK4 (Pam-R), HEK TLR2 cells and human DC, FIG. 2. As for the experimental part: (a) HEK TLR-2 cells were incubated with titrated amounts of test compounds or controls for 24 h;
The HEK-TLR2 reporter cell line and HEK293 cells stably transfected with human TLR2 were obtained from Invivogen, Toulouse, France. HEK-TLR2 cells were cultured in complete IMDM medium, supplemented with 500 μg/mL Geneticin. Test compounds were titrated in a flat-bottom 96-well plate (Corning, Amsterdam, The Netherlands) in complete IMDM medium to which 20 000 HEK-TLR2 cells per well were added. After 48 h of incubation at 37° C., the supernatant was taken from the wells for ELISA analysis (BioLegend, San Diego, CA) to determine the amount of IL-8 that was produced as a measure for TLR2-mediated activation.
A general note: In an ELISA, binding on a coated surface is turned into a signal by an enzyme label.

Experiment [1] relates to human monocyte-derived dendritic cells. The experiment can be described thus: Activation of human dendritic cells (IL-12 cytokine secretion by ELISA). The note with it: human DCs stimulated with titrated amounts of compound; IL-12 by ELISA; FIG. 2B/3B. An excerpt: One representative from three independent experiments is shown (error bars represent SD);
DCs were stimulated with titrated amounts of test compounds or controls. Supernatants were harvested and analyzed for IL-12 cytokine secretion by ELISA as in FIG. 2B;

The next experiment concerns mouse D1-cells. As to the kind of experiment: Uptake by mouse D1-cells (confocal laser scanning microscopy). Particulars: 1 μM, 15 min incubation; Cy5-labeled conjugate; endo-lysosomal compartments; FIG. 4B. As for the experimental part: The cells were incubated for 15 min with compound 10 (1 μM). The uptake and localization of the compounds were analyzed with confocal laser scanning microscopy. The images are representative for multiple cells in at least 3 experiments.

The test system of a further experiment is human moDC. The experiment can be described thus: Uptake by human moDC (confocal laser scanning microscopy). Particulars: 1 μM, 15 min incubation; Cy5-labeled conjugate; endo-lysosomal compartments; FIG. 4A. As for the experimental part:
The cells were incubated for 15 min with compound 10 (1 μM). The uptake and localization of the compounds were analyzed with confocal laser scanning microscopy. The images are representative for multiple cells in at least 3 experiments; and […]

T1 sequence (O60603 21-784): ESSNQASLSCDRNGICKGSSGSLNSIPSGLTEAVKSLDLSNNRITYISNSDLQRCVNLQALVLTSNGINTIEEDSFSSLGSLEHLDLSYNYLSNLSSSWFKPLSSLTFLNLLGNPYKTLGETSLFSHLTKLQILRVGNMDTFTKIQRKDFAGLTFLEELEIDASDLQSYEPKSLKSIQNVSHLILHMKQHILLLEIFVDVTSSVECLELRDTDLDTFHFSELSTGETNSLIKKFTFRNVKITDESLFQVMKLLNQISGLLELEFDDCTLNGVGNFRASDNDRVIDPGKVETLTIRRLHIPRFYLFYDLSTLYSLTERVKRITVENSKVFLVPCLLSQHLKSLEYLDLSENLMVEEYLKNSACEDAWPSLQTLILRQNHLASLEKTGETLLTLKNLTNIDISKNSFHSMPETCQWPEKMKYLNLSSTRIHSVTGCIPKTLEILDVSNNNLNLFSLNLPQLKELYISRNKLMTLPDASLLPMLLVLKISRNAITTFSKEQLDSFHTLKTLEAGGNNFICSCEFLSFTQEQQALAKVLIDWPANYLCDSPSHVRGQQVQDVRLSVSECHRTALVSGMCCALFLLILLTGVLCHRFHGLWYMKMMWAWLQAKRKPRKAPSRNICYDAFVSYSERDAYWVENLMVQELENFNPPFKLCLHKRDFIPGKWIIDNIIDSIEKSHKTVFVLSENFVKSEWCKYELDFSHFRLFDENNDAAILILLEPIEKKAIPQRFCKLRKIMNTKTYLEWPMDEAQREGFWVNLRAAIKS

Consider “NH2C(O)NH-Cys(EtOC(O)C15H31)-Ser(OH)—O(CH2CH2O)3CH2C(O)NH-DEVSGLEQLESIINFEKL-OH ({Carbamoyl-Cys(EtOC(O)C15H31)-Ser-O(CH2CH2O)3CH2C(O)}-DEVSGLEQLESIINFEKL-OH) [Compound 8]”, for which the “activation of TLR2 HEK cells (human IL-8 production via TLR-2)” value (“activation of TLR2 HEK cells” for short) with human TLR2 is reported as “intact bio-activity”. In addition, the “activation of human monocyte-derived dendritic cells (IL-12 secretion)” value (“activation … (IL-12 secretion)” below) in experiment [1] was “intact bio-activity”.
On to “NH2C(O)NH-Cys(EtOC(O)C15H31)-Ser(OH)—O(CH2CH2O)3CH2C(O)NH-DEVSGLEQLESIINFEK(^Cy5)L-OH ({Carbamoyl-Cys(EtOC(O)C15H31)-Ser-O(CH2CH2O)3CH2C(O)}-DEVSGLEQLESIINFEK(Cy5)L-OH) [Compound 10, Cy5 fluorophore-labeled conjugate from 27]”, for which, in the experiment with human TLR2, the “activation of TLR2 HEK cells” value was “intact bio-activity”. Moreover, in the experiment on mouse D1-cells, the “dendritic cell uptake, murine” value is listed as “efficient engulfment”. Besides, in the experiment on human moDC, the “dendritic cell uptake, human” value was “efficient engulfment”. Moreover, in experiment [1], the “activation … (IL-12 secretion)” value is on record as “intact bio-activity”.
Take “NH2C(O)NH-Cys(EtOC(O)C15H31)-Ser(OH)—NH(CH2CH2O)3CH2C(O)NH-DEVSGLEQLESIINFEKL-OH ({Carbamoyl-Cys(EtOC(O)C15H31)}-S[AEEEA]DEVSGLEQLESIINFEKL-OH) [Compound 9]”: in the experiment with human TLR2, the “activation of TLR2 HEK cells” value was “intact bio-activity”. The “activation … (IL-12 secretion)” value in experiment [1] is on record as “intact bio-activity”.
In the case of “NH2C(O)NH-Cys(EtOC(O)C15H31)-Ser(OH)—NH(CH2CH2O)3CH2C(O)NH-DEVSGLEQLESIINFEK(^Cy5)L-OH ({Carbamoyl-Cys(EtOC(O)C15H31)}-S[AEEEA]DEVSGLEQLESIINFEK(Cy5)L-OH) [Compound 11, Cy5 fluorophore-labeled conjugate from 28]”, the “activation of TLR2 HEK cells” value with human TLR2 is “intact bio-activity”. In experiment [1], the “activation … (IL-12 secretion)” value is “intact bio-activity”.
In the case of `CCCCCCCCCCCCCCCC(=O)OCCSCC[C@H](NC(N)=O)C(=O)N[C@@H](CO)C(=O)OCCOCCOCCOCC(=O)O` [Compound 6, (14S,17S)-14-(hydroxymethyl)-13,16,24-trioxo-17-ureido-3,6,9,12,23-pentaoxa-20-thia-15-azanonatriacontanoic acid], on human TLR2, the “activation of TLR2 HEK cells” value is on record as “excellent capacity to activate” and the “TLR2-mediated bio-activity compared to reference ligands” value was “improved”. The “activation … (IL-12 secretion)” value in experiment [1] was “excellent capacity to activate”.
Regarding `CCCCCCCCCCCCCCCC(=O)OCCSCC[C@H](NC(N)=O)C(=O)N[C@@H](CO)C(=O)NCCOCCOCCOCC(=O)O` [Compound 7, (14S,17 S)-14-(hydroxymethyl)-13,16,24-trioxo-17-ureido-3,6,9,23-tetraoxa-20-thia-12,15-diazanonatriacontanoic acid], at human TLR2, the “activation of TLR2 HEK cells” value is “excellent capacity to activate” and the “TLR2-mediated bio-activity compared to reference ligands” value was “improved”. In experiment [1], the “activation … (IL-12 secretion)” value is “excellent capacity to activate”.
